Where no end group is shown, it is not given here.
Columns and labels:
[1] = tested on: L. iners; test: direct kill assay (time-kill, FIG. 8); format: cell-based, Lactobacillus iners; conditions: 0.375, 0.75, 1.5 mg/ml peptide, spotted 30 min post incubation
Experimental: (§1) For these peptides, 0.375 mg/ml concentration is sufficient to cause loss of viability of G. vaginalis and L. iners as compared to the absence of peptides. In FIG. 8A, M1-M8 peptides (SEQ ID NOS: 1, 6, 11, 16, 21, 26, 31, and 36) were tested using direct kill assays. Equal inoculums of G. vaginalis, L. iners and L. crispatus were incubated with either water (0.00), or 0.375 mg/ml, 0.75 mg/ml and 1.5 mg/ml. of peptides. Aliquots were spotted 30 minutes (min) post incubation on human blood tween (HBT) bilayer media, Tryptic soy agar (+5% sheep blood) or MRS (de Man, Rogosa, and Sharpe) agar plates respectively. For these peptides, 0.375 mg/ml concentration is sufficient to cause loss of viability of G. vaginalis and L. iners as compared to the absence of peptides.

[2] = tested on: G. vaginalis; test: direct kill assay (time-kill, FIG. 8); format: cell-based, Gardnerella vaginalis; conditions: 0.375, 0.75, 1.5 mg/ml peptide, spotted 30 min post incubation
Experimental: as §1

[3] = tested on: L. crispatus; test: direct kill assay (time-kill, FIG. 8); format: cell-based, Lactobacillus crispatus; conditions: 0.375, 0.75, 1.5 mg/ml peptide, spotted 30 min post incubation
Experimental: as §1

[4] = tested on: A. baumannii; test: growth of A. baumannii with peptide (FIG. 17); format: cell-based, Acinetobacter baumannii; conditions: 250 μg/ml peptide, 0.01×MH broth
[5] = tested on: S. epidermidis; test: colony-forming assay, CFU/ml over time (FIG. 10C); format: cell-based, Staphylococcus epidermidis; conditions: peptide 0.5% (5 mg/ml), 0.8% NaCl, T=0 up to 60 minutes
From the text: (§2) FIGS. 10A, 10B, and 10C are graphs depicting bacterial viability in colony forming units (CFU) per milliliter (ml) over time (minutes) in the presence of select polypeptides: SEQ ID NO: 26 (M6); SEQ ID NO: 31 (M7); SEQ ID NO: 177 (M14); SEQ ID NO: 213 (M16); and SEQ ID NO: 291 (M22) in comparison to Indolicidin (IND) in the presence of P. aeruginosa (FIG. 10A), S. aureus MRSA (FIG. 10B), and S. epidermidis (FIG. 10C), respectively.
(§3) In FIGS. 10A, 10B, and 10C, quantitative colony-forming units/ml were assayed using the indicated peptides at a final concentration of 0.5% (5 mg/ml). For this colony-forming assay, peptides were incubated with indicated bacterial strains in 0.8% NaCl, and aliquots were removed starting time T=0, up to 60 minutes, followed by serial dilution and plating on Tryptic soy agar plates for overnight incubation, and enumeration of CFU/ml.

[6] = tested on: MRSN panel P. aeruginosa strain NR-51553; format: cell-based, Pseudomonas aeruginosa; conditions: 0.5% CMC and 0.01×MH broth
From the text: FIGS. 15A-15B show the growth of P. aeruginosa strain NR-51553 of FIG. 14A in a modified CLSI-based broth dilution assay, in the presence of peptide M16 (SEQ ID NO: 213) in 0.01×MH broth (FIG. 15A) and in the presence of peptide M16 in 0.01×MH broth and 0.5% carboxymethyl cellulose (CMC) (FIG. 15B), where the amount of growth is indicated as: 4 is full growth; 3 is too many colonies to count; 2 is countable colonies; and 1 is no growth.
FIG. 14A indicates sensitive(S) or resistant (R) relative to the listed antibiotic for eight of the more peptide-resistant […] strains of 100 MRSN panel strains (NR-51553, NR-51556, NR-51570, NR51597, NR-51520, NR-51546, NR-51574, and NR-51588). […] CLSI-based method described in CLSI document M07-A10, Vol. 35, No. 2, 2015 (ISBN 1-56238-988-2).

[7] = tested on: S. aureus MRSA; test: direct kill assay of formulated peptide (FIG. 13); format: cell-based, Staphylococcus aureus; conditions: 0.5% by weight peptide in 20% propylene glycol and 2% hydroxypropyl cellulose
Experimental: (§4) FIG. 13 depicts the retention of antimicrobial activity of the indicated peptides M6 (SEQ ID NO: 26), M14 (SEQ ID NO:177), M16 (SEQ ID NO: 213) and M22 (SEQ ID NO: 291), with each peptide formulated in a composition with 20% propylene glycol and 2% hydroxypropyl cellulose (F is the formulation without a peptide), in the presence of S. aureus MRSA, from 0 minutes (min) to 60 minutes, as indicated, where the amount of growth is indicated as: 4 is full growth; 3 is too many colonies to count; 2 is countable colonies; and 1 is no growth.
In FIG. 13, the impact of the formulation comprising 20% propylene glycol and 2% hydroxypropyl cellulose and 0.5% by weight of peptide M6 (SEQ ID NO: 26), M7 (SEQ ID NO: 31), M14 (SEQ ID NO: 177), M16 (SEQ ID NO: 213), or M22 (SEQ ID NO: 291) was tested using a direct kill assay.

[8] = tested on: P. aeruginosa; test: colony-forming assay, CFU/ml over time (FIG. 10A); format: cell-based, Pseudomonas aeruginosa; conditions: peptide 0.5% (5 mg/ml); for sensitivity of P. aeruginosa to peptide (CFU/ml): 0.8% NaCl, T=0 up to 60 minutes; for sensitivity of P. aeruginosa to peptide as compared to Indolicidin: after 20 minutes
From the text: as §2, §3

[9] = tested on: S. aureus MRSA; test: colony-forming assay, CFU/ml over time (FIG. 10B); format: cell-based, Staphylococcus aureus; conditions: peptide 0.5% (5 mg/ml); for sensitivity of S. aureus to peptide (CFU/ml): 0.8% NaCl, T=0 up to 60 minutes; for sensitivity of S. aureus MRSA to peptide as compared to Indolicidin: after 20 minutes
From the text: as §2, §3

[10] = tested on: A. baumannii; test: direct kill assay of formulated peptide (FIG. 12D); format: cell-based, Acinetobacter baumannii; conditions: 0.5% peptide in 20% propylene glycol and 2% hydroxypropyl cellulose, 0-60 min
Experimental: as §4, with “FIGS. 12A, 12B, 12C, and 12D depict” for “FIG. 13 depicts”, “G. vaginalis (FIG. 12A), L. iners (FIG. 12B), L. crispatus (FIG. 12C), or A. baumannii (FIG. 12D),” for “S. aureus MRSA,”
In FIGS. 12A, 12B, 12C, and 12D, the impact of the formulation comprising 20% propylene glycol and 2% hydroxypropyl cellulose and 0.5% by weight of peptide M6 (SEQ ID NO: 26), M7 (SEQ ID NO: 31), M14 (SEQ ID NO: 177), M16 (SEQ ID NO: 213), or M22 (SEQ ID NO: 291) was tested in a direct kill assay as described herein.

[11] = tested on: P. aeruginosa; test: time-kill assays (FIG. 9); format: cell-based, Pseudomonas aeruginosa; conditions: as compared to M1-M5
Experimental: FIG. 9. depicts the antibiotic activity (in concentration of polypeptide at 0.375 mg/ml (****), 0.75 mg/ml (***), 1.5 mg/ml (**), or 3 mg/ml (*), as indicated) for each of polypeptides (SEQ ID NO: 1 (M1); SEQ ID NO: 6 (M2); SEQ ID NO: 11 (M3); SEQ ID NO: 16 (M4); SEQ ID NO: 21 (M5); SEQ ID NO: 26 (M6); SEQ ID NO: 31 (M7); SEQ ID NO: 36 (M8); SEQ ID NO: 41 (M9); SEQ ID NO: 76 (M10); SEQ ID NO: 106 (M11); SEQ ID NO: 141 (M12); SEQ ID NO: 142 (M13); SEQ ID NO: 177 (M14); SEQ ID NO:178 (M15); SEQ ID NO: 213 (M16); SEQ ID NO: 219 (M18), SEQ ID NO: 220 (M19); SEQ ID NO: 256 (M21); and SEQ ID NO: 291 (M22)) against P. aeruginosa and S. aureus MRSA, as indicated.
In FIG. 9, the bacterial pathogens P. aeruginosa and S. aureus—associated with skin, burn and wound infections were tested.

[12] = tested on: EpiVaginal tissue model (Mattek); format: cell-based
Experimental: Table 2 below show the results of peptides M6 (SEQ ID NO: 26) and M14 (SEQ ID NO: 177) were assayed for their impact on vaginal irritation using the Epi Vaginal model to determine the exposure time to decrease the tissue viability to 50% (ET50) in EpiVaginal™ tissue model (Mattek). In brief, after exposure to the M6 and M14 peptides at 20 mg/ml final concentration for various times, toxicity was determined by measuring the relative conversion of MTT (3-(4,5-dimethylthiazol-2-yl)-2,5-dephenyltetrazolium bromide) in the vaginal tissue samples treated with peptide compared to tissues treated with a solvent negative control. Positive control was Triton-X-100 at 1% final concentration.

GKRKPVTRAR (Synthetic: M2)
polypeptides target L. iners (time-kill images) [1]: target
polypeptides target G. vaginalis (time-kill images) [2]: target
polypeptides target L. crispatus (time-kill images) [3]: not L. crispatus

HKYAVRVVKK [M16, HKYAVRVVKK]
efficacy on A. baumannii, M16 at 4 hours compared to M14 at 24 hours [4]: more efficacious
sensitivity of S. epidermidis to peptide (CFU/ml) [5]: also sensitive
minimal bactericidal concentration (MBC) [6]: 15 µg/mL
antibacterial activity against S. aureus MRSA in formulation [7]: retains antibacterial activity
sensitivity of P. aeruginosa to peptide (CFU/ml) [8]: particularly sensitive
sensitivity of P. aeruginosa to peptide as compared to Indolicidin [8]: more sensitive
sensitivity of S. aureus to peptide (CFU/ml) [9]: also sensitive
sensitivity of S. aureus MRSA to peptide as compared to Indolicidin [9]: more sensitive
sensitivity of growth of A. baumannii, as compared to M22 [10]: more sensitive

HQKMAKPWTQ (Synthetic: M4)
polypeptides target L. iners (time-kill images) [1]: target
polypeptides target G. vaginalis (time-kill images) [2]: target
polypeptides target L. crispatus (time-kill images) [3]: not L. crispatus

HYYAVAVVK (Synthetic: M22)
antibacterial activity against S. aureus MRSA in formulation [7]: retains antibacterial activity
time from which viability of S. aureus MRSA is reduced [7]: 0 min

KTPKAVNKCR (Synthetic: M8)
polypeptides target L. iners (time-kill images) [1]: target
polypeptides target G. vaginalis (time-kill images) [2]: target
polypeptides target L. crispatus (time-kill images) [3]: not L. crispatus
effectiveness in reducing the viability of P. aeruginosa [11]: more effective

NTNRPRTKRA (Synthetic: M5)
polypeptides target L. iners (time-kill images) [1]: target
polypeptides target G. vaginalis (time-kill images) [2]: target
polypeptides target L. crispatus (time-kill images) [3]: not L. crispatus

PKVERRPRPR (Synthetic: M1)
polypeptides target L. iners (time-kill images) [1]: target
polypeptides target G. vaginalis (time-kill images) [2]: target
polypeptides target L. crispatus (time-kill images) [3]: not L. crispatus

PVPQKVRPQR (Synthetic: M7)
sensitivity of S. epidermidis to peptide (CFU/ml) [5]: also sensitive
polypeptides target L. iners (time-kill images) [1]: target
polypeptides target G. vaginalis (time-kill images) [2]: target
antibacterial activity against S. aureus MRSA in formulation [7]: retains antibacterial activity
sensitivity of P. aeruginosa to peptide (CFU/ml) [8]: particularly sensitive
sensitivity of P. aeruginosa to peptide as compared to Indolicidin [8]: more sensitive
polypeptides target L. crispatus (time-kill images) [3]: not L. crispatus
sensitivity of S. aureus to peptide (CFU/ml) [9]: also sensitive
sensitivity of S. aureus MRSA to peptide as compared to Indolicidin [9]: more sensitive
effectiveness in reducing the viability of P. aeruginosa [11]: more effective

QHQKAKKPWT (Synthetic: M3)
polypeptides target L. iners (time-kill images) [1]: target
polypeptides target G. vaginalis (time-kill images) [2]: target
polypeptides target L. crispatus (time-kill images) [3]: not L. crispatus

RGPPKSCRKRD [M14, RGPPKSCRKRD]
ET50 [12]: >24 h

RPRIPKASAK [M6, RPRIPKASAK]
ET50 [12]: >24 h

RQPRTHKYAVRVVKK (Synthetic: M15)
effectiveness in reducing the viability of P. aeruginosa [11]: more effective

Triton-X-100 [reference compound]
ET50 [12]: 1.55 h
